Earlier results in patent publication US20020115211A1, “A METHOD FOR IN VITRO MATURATION OF HUMAN GAMETES” (MEDI-CULT A/S, priority 1998, published 2002).

System: immature human gametes
Conditions: presence in the culture medium; recent research

## insulin: Component of the SSR media additives
  effect on the chance for successful pregnancy: negative effect
